From paper PMC12368987 (2025) come the findings set out here.

Assay [1] has as its system 16T (upper small loop without 16th thymine) (DNA, aptamer) AACGGTTTGATCTCCTCGTG
As to the kind of experiment: ThT displacement fluorescence. The note with it: pH 7.5; 400 nM aptamer, 10 μM thioflavin T; up to 50 μM.

For assay [2], the system named is PFOS_JYP_2 (DNA, aptamer) CTCTCGGGACGACGGGGTAACGGTTTGATCTCCTTCGTGTTCTGTCGTCCC
Nature of the assay: ThT displacement fluorescence. The note with it: pH 7.5; 400 nM aptamer, 10 μM thioflavin T; up to 50 μM.

In assay [3] the test system is 15C, 16T (DNA, aptamer) AACGGTTTGATCTCTCGTG
Nature of the assay: ThT displacement fluorescence, Hill fit. The note with it: pH 7.5, RT, 70 min; 400 nM aptamer; 10 μM thioflavin T displaced.

In assay [4] the test system is 7T (upper small loop without 7th thymine) (DNA, aptamer) AACGGTTGATCTCCTTCGTG
Nature of the assay: ThT displacement fluorescence, Hill fit. The note with it: pH 7.5, RT, 70 min; 400 nM aptamer; 10 μM thioflavin T displaced.

Assay [5] deals with 16T (upper small loop without 16th thymine) (DNA, aptamer) AACGGTTTGATCTCCTCGTG
Nature of the assay: ThT displacement fluorescence, Hill fit. To be noted: pH 7.5, RT, 70 min; 400 nM aptamer; 10 μM thioflavin T displaced.

Assay [6] has as its system 10A (upper small loop without 10th adenine) (DNA, aptamer) AACGGTTTGTCTCCTTCGTG
Nature of the assay: ThT displacement fluorescence, Hill fit. To be noted: pH 7.5, RT, 70 min; 400 nM aptamer; 10 μM thioflavin T displaced.

The subject of assay [7] is PFOS_JYP_3 (DNA, aptamer) CTCTCGGGACGACGGGGGTTGCATCTTTATATGTTTCTTCTCTGTCGTCCC
Nature of the assay: ThT displacement fluorescence, Hill fit. The note with it: pH 7.5, RT, 70 min; 400 nM aptamer; 10 μM thioflavin T displaced.

Assay [8] deals with 10A, 16T (DNA, aptamer) AACGGTTTGTCTCCTCGTG
As to the kind of experiment: ThT displacement fluorescence, Hill fit. The note with it: pH 7.5, RT, 70 min; 400 nM aptamer; 10 μM thioflavin T displaced.

Assay [9] concerns PFOS_JYP_2 upper loop, ninth guanine mutated to cytosine (DNA, aptamer) AACGGTTTCATCTCCTTCGTG
Nature of the assay: ThT displacement fluorescence, Hill fit. The note with it: pH 7.5, RT, 70 min; 400 nM aptamer; 10 μM thioflavin T displaced.

Assay [10] has as its system PFOS_JYP_2 with flanking region shortened to 4 base pairs (DNA, aptamer) CGACGGGGTAACGGTTTGATCTCCTTCGTGTTCTGTCG
Nature of the assay: ThT displacement fluorescence. The note with it: different PFOS concentrations; highest not stated in material.

The subject of assay [11] is upper small loop of PFOS_JYP_2 (DNA, aptamer) AACGGTTTGATCTCCTTCGTG
As to the kind of experiment: ThT displacement fluorescence, Hill fit. The note with it: pH 7.5, RT, 70 min; 400 nM aptamer; 10 μM thioflavin T displaced.

Assay [12] has as its system PFOS_JYP_2 (DNA, aptamer) CTCTCGGGACGACGGGGTAACGGTTTGATCTCCTTCGTGTTCTGTCGTCCC
As to the kind of experiment: ThT displacement fluorescence, Hill fit. The note with it: pH 7.5, RT, 70 min; 400 nM aptamer; 10 μM thioflavin T displaced.

Assay [13] has as its system 15C (upper small loop without 15th cytosine) (DNA, aptamer) AACGGTTTGATCTCTTCGTG
Nature of the assay: ThT displacement fluorescence, Hill fit. To be noted: pH 7.5, RT, 70 min; 400 nM aptamer; 10 μM thioflavin T displaced.

Assay [14] relates to 11T, 16T (DNA, aptamer) AACGGTTTGACTCCTCGTG
As to the kind of experiment: ThT displacement fluorescence, Hill fit. The note with it: pH 7.5, RT, 70 min; 400 nM aptamer; 10 μM thioflavin T displaced.

The test system of assay [15] is PFOS_JYP_6 (DNA, aptamer) CTCTCGGGACGACGGCAGCTCAGCATCTTTGTTGCCCCTGACTGTCGTCCC
As to the kind of experiment: ThT displacement fluorescence, Hill fit. The note with it: pH 7.5, RT, 70 min; 400 nM aptamer; 10 μM thioflavin T displaced.

Assay [16] relates to 9G, 16T (DNA, aptamer) AACGGTTTATCTCCTCGTG
As to the kind of experiment: ThT displacement fluorescence, Hill fit. To be noted: pH 7.5, RT, 70 min; 400 nM aptamer; 10 μM thioflavin T displaced.

For assay [17], the system named is 11T (upper small loop without 11th thymine) (DNA, aptamer) AACGGTTTGACTCCTTCGTG
Nature of the assay: ThT displacement fluorescence, Hill fit. To be noted: pH 7.5, RT, 70 min; 400 nM aptamer; 10 μM thioflavin T displaced.

Assay [18] has as its system PFOS_JYP_4 (DNA, aptamer) CTCTCGGGACGACGGGGGGCTATTTCTTCATTCTCTGCTGACTGTCGTCCC
Nature of the assay: ThT displacement fluorescence, Hill fit. The note with it: pH 7.5, RT, 70 min; 400 nM aptamer; 10 μM thioflavin T displaced.

The subject of assay [19] is 7T, 16T (DNA, aptamer) AACGGTTGATCTCCTCGTG
Nature of the assay: ThT displacement fluorescence, Hill fit. To be noted: pH 7.5, RT, 70 min; 400 nM aptamer; 10 μM thioflavin T displaced.

Assay [20] concerns PFOS_JYP_7 (DNA, aptamer) CTCTCGGGACGACCACCAGGTCTCGTCTTATTGGCTATGTGTTGTCGTCCC
As to the kind of experiment: ThT displacement fluorescence, Hill fit. To be noted: pH 7.5, RT, 70 min; 400 nM aptamer; 10 μM thioflavin T displaced.

The test system of assay [21] is PFOS_JYP_5 (DNA, aptamer) CTCTCGGGACGACGGCCAGATGGAGCTTTTATTTCCCTTCCTCGTCGTCCC
As to the kind of experiment: ThT displacement fluorescence, Hill fit. The note with it: pH 7.5, RT, 70 min; 400 nM aptamer; 10 μM thioflavin T displaced.

Assay [22] concerns PFOS_JYP_6 (72 nt, qPCR) (DNA, aptamer) GGAGGCTCTCGGGACGACGGCAGCTCAGCATCTTTGTTGCCCCTGACTGTCGTCCCGATGCTGCAATCGTAA
As to the kind of experiment: qPCR Ct change of aptamer-gold nanoparticle complex. To be noted: Mg2+ 2 mM (PBS); 1x PBS, pH 7.5; 100 pmol aptamer; 0-400 pM PFOS. On the technique in general: Real-time PCR tracks product formation cycle by cycle.

Assay [23] has as its system 9G (upper small loop without 9th guanine) (DNA, aptamer) AACGGTTTATCTCCTTCGTG
As to the kind of experiment: ThT displacement fluorescence, Hill fit. The note with it: pH 7.5, RT, 70 min; 400 nM aptamer; 10 μM thioflavin T displaced.

For assay [24], the system named is PFOS_JYP_1 (DNA, aptamer) CTCTCGGGACGACGGGTAGTCTGTGTATGCTCGCAAGCGTGCTGTCGTCCC
As to the kind of experiment: ThT displacement fluorescence, Hill fit. To be noted: pH 7.5, RT, 70 min; 400 nM aptamer; 10 μM thioflavin T displaced.

On to `O=C(O)C(F)(F)C(F)(F)C(F)(F)C(F)(F)C(F)(F)C(F)(F)C(F)(F)C(F)(F)F`, for which the binding entry in assay [1] and in assay [2] was “weak” in each case.

As to `O=C(O)C(F)(F)C(F)(F)C(F)(F)C(F)(F)C(F)(F)C(F)(F)C(F)(F)F`, the binding entry in [1] and in [2] was “weak” throughout.

For `CCCCCCCCS(=O)(=O)O`, the binding result in [2] was “no”.

Consider `O=C(O)C(F)(F)C(F)(F)C(F)(F)C(F)(F)C(F)(F)C(F)(F)C(F)(F)C(F)(F)C(F)(F)F`, for which the binding entry in assay [2] was “weak”.

For `O=S(=O)(O)C(F)(F)C(F)(F)C(F)(F)C(F)(F)C(F)(F)C(F)(F)F`, the binding result in [1] and in assay [2] was “weak” in each case.

With `O=S(=O)(O)C(F)(F)C(F)(F)C(F)(F)C(F)(F)F`, the binding entry in [2] is “no”.

Take `O=S(=O)(O)C(F)(F)C(F)(F)C(F)(F)C(F)(F)C(F)(F)C(F)(F)C(F)(F)C(F)(F)F`: the KD in [3] is 7.86 ± 0.18 µM; in assay [4], 7.99 ± 0.50 µM; in [5], 6.77 ± 0.16 µM; in assay [6], 8.30 ± 0.65 µM; in assay [7], 7.82 ± 0.19 µM; in assay [8] it was 8.19 ± 0.04 µM. For the same molecule, the KD in [9] came out at 18.23 ± 1.92 µM; in [11], 11.21 ± 0.16 µM; in [12] it was 6.76 ± 0.20 µM; in assay [13] it was 7.57 ± 0.12 µM; in assay [14] it was 8.82 ± 0.37 µM; in assay [15] it was 7.69 ± 0.04 µM. Besides, the KD in [16] is 7.35 ± 0.42 µM; in assay [17] it was 8.60 ± 0.27 µM; in [18] it was 6.87 ± 0.06 µM; in assay [19] it was 7.97 ± 0.49 µM; in assay [20] it was 8.42 ± 0.34 µM; in assay [21], 7.33 ± 0.21 µM. Besides, the KD in assay [23] came out at 8.86 ± 0.53 µM; in assay [24], 6.93 ± 0.15 µM. For the same molecule, the binding result was “no” in assay [10] and “yes” in [22].

As to `O=C(O)C(F)(F)C(F)(F)C(F)(F)F`, in [2], the binding result is on record as “no”.

A word on the KD: it is the constant that tells how readily two partners part at equilibrium. A low value points to tighter binding.
